Test results published in patent publication US12012636B2, “Pulmonary hypertension biomarker” (NOVARTIS AG, priority 2014, dated 2024).

Test system: candidate biomarker gene transcripts (Ccl21, Col18a1, Cxcl12, Cxcl13, Dmp1, Frzb) in rat Hy/Su lungs
Assay: Candidate biomarker mRNA levels (QPCR) in lung in the hypoxia/Sugen rat model of PH following treatment with Imatinib
Assay type: in vivo
Protocol: Sugen (250 mg; SU5416; Sigma-Aldrich®) was dissolved in vehicle (12.5 ml; 0.5% (wt/vol) carboxyl methylcellulose sodium, 0.9% (wt/vol) NaCl, 0.4% (vol/vol) polysorbate, 0.9% (vol/vol) benzyl alcohol in deionized water), sonicated for 15 min and then vortexed. On day 0, animals were anaesthetized, weighed and received Sugen 20 mg/kg by sub-cutaneous injection. […] Control animals remained in room air (21% O2) to serve as normoxic controls for the study. After 2 weeks, all animals were removed from the hypoxia chamber. At week 4, the animals were subjected to echocardiographic measurements under sevoflurane anaesthesia and monitored closely until fully recovered. Animals underwent RV catheterization for measurement of right ventricular pressure (RVP) under a mixture of ketamin and medetomidine anaesthesia. Following euthanasia by Schedule 1, the left lobe of the lung was removed, inflated and fixed in 10% formalin and embedded in paraffin for histological analysis. Lobes of the right lung were snap frozen for transcriptional profiling.
Frozen rat lung samples, collected in TT2 tissue bags (K Bioscience® Cat #520021) were crushed using the Covaris CryoPrep CP02. Total RNA from the crushed lung samples was extracted by RNeasy Mini kit according to the manufacturer's protocol (Qiagen™). Genomic DNA was removed by treatment with DNase I (Turbo DNase kit, Invitrogen). The exact quantification of RNA was determined with a NanoDrop ND-1000 spectrophotometer. RNA quality was assessed by analyzing 18S and 28S rRNAs by microfluidics-based electrophoresis on a 2100 Bioanalyzer (Agilent Technologies, Santa Clara, Calif.).
All animal procedures were conducted as described above.
In this study, following administration of an initial dose of Sugen on day 0 and a period of 14 days in a hypoxia chamber following, rats were administered 100 mg/kg of Imatinib or vehicle control daily for a further two weeks.
Following euthanasia by Schedule 1, the left lobe of the lung was removed, inflated and fixed in 10% formalin and embedded in paraffin for histological analysis, by airway inflation. Tissue sections (3 μm) were stained with antibodies against von Willebrand factor (vWF) and α-smooth muscle actin (α-SMA). Slides were examined using a DMLB and confocal microscope, digital camera, and IM50 imaging software (Leica Microsystems, London, UK). Small pulmonary vessels (10-100 μm diameter indicated by vWF staining) were assessed for degrees of circumferential α-SMA-positive staining indicative of muscularisation. Lobes of the right lung were snap frozen for candidate biomarker mRNA expression measurements. Total RNA was extracted and underwent quality control as mentioned in section above.
cDNA was synthesised using the High Capacity RNA-to-cDNA Kit (Invitrogen) according to the kit manufacturer's protocol. QPCR was performed on an ABI Prism 7900HT sequence detection system (Applied Biosystems, USA), using TaqMan Universal PCR Master Mix (Applied Biosystems). Taqman assays were purchased from Applied Biosystems®. Relative expression was normalised to a combination of 10 different housekeeping genes. Data were analyzed using the SDS RQ Manager, software (Applied Biosystems, version 2.4). Normalised gene expression values for each gene (2^−Δct) were plotted and analysed using a two-way ANOVA in GraphPad Prism 6.02.

[1] = rat Hy/Su lungs, Imatinib 100 mg/kg daily for two weeks vs vehicle, QPCR

## Cc1ccc(NC(=O)c2ccc(CN3CCN(C)CC3)cc2)cc1Nc1nccc(-c2cccnc2)n1 [Imatinib]
Day 28, imatinib group vs vehicle treated animals (increased vs naïve controls)
  CCL21 mRNA expression levels in lung samples: decrease
[1]
  Ccl21 gene transcript in lung: down-regulated
  Col18a1 gene transcript in lung: down-regulated
  Cxcl12 gene transcript in lung: down-regulated
  Cxcl13 gene transcript in lung: down-regulated
  Dmp1 gene transcript in lung: down-regulated
  Frzb gene transcript in lung: down-regulated
